Assays:
Hepatotoxicity [1] = test: Literature-mined compound from Fourches et al multi-species drug-induced liver injury (DILI) dataset, effect in rodents; conditions: rodentia
Hepatotoxicity [2] = test: Literature-mined compound from Fourches et al multi-species drug-induced liver injury (DILI) dataset, effect in humans; conditions: human
Hepatotoxicity [3] = test: Literature-mined compound from Fourches et al multi-species drug-induced liver injury (DILI) dataset, effect in non-rodents

Row | Compound | Hepatotoxicity (Hepatotoxicity [1]) | Hepatotoxicity (Hepatotoxicity [2]) | Hepatotoxicity (Hepatotoxicity [3]) | Hepatotoxicity (Hepatotoxicity [1]; Liver) | Hepatotoxicity (Hepatotoxicity [2]; Liver) | Hepatotoxicity (Hepatotoxicity [3]; Liver)
1 | CN1C[C@H](C(=O)N[C@]2(C)O[C@@]3(O)[C@@H]4CCCN4C(=O)[C@H](Cc4ccccc4)N3C2=O)C=C2c3cccc4[nH]cc(c34)C[C@H]21 [ERGOTAMINE] | no drug-induced liver injury reported | drug-induced liver injury reported | drug-induced liver injury reported | – | – | –
2 | O=C(O)Cc1cc(I)c(Oc2ccc(O)c(I)c2)c(I)c1 [TIRATRICOL] | drug-induced liver injury reported | no drug-induced liver injury reported | no drug-induced liver injury reported | – | – | –
3 | CN(C)CCOc1ccc(/C(=C(/CCCl)c2ccccc2)c2ccccc2)cc1 [TOREMIFENE] | drug-induced liver injury reported | drug-induced liver injury reported | no drug-induced liver injury reported | – | – | –
4 | COC(=O)C(c1ccccc1)C1CCCCN1 (stereo not drawn) [METHYLPHENIDATE] | drug-induced liver injury reported | drug-induced liver injury reported | no drug-induced liver injury reported | – | – | –
5 | O=C(O)c1cc(=O)[nH]c(=O)[nH]1 [OROTIC ACID] | drug-induced liver injury reported | no drug-induced liver injury reported | no drug-induced liver injury reported | – | – | –
6 | CC(=O)[O-].[Na+] [SODIUM ACETATE] | – | – | – | drug-induced liver injury reported | no drug-induced liver injury reported | no drug-induced liver injury reported
7 | C[C@]12C=CC(=O)C=C1CC[C@@H]1[C@@H]2C(=O)C[C@@]2(C)[C@H]1CC[C@]2(O)C(=O)CO [PREDNISONE] | no drug-induced liver injury reported | drug-induced liver injury reported | drug-induced liver injury reported | – | – | –
8 | CC1(C)S[C@@H]2[C@H](NC(=O)Cc3ccccc3)C(=O)N2[C@H]1C(=O)O [PENICILLIN G] | drug-induced liver injury reported | drug-induced liver injury reported | drug-induced liver injury reported | – | – | –
9 | CC1=C2C[C@H]3[C@@H](CC=C4C[C@@H](O)CC[C@@]43C)[C@@H]2CC[C@]12O[C@@H]1C[C@H](C)CN[C@H]1[C@H]2C [CYCLOPAMINE] | no drug-induced liver injury reported | drug-induced liver injury reported | no drug-induced liver injury reported | – | – | –
10 | CCCC(C)(COC(N)=O)COC(N)=O [MEPROBAMATE] | drug-induced liver injury reported | no drug-induced liver injury reported | no drug-induced liver injury reported | – | – | –
11 | CC[C@]1(O)C[C@@H]2CN(CCc3c([nH]c4ccccc34)[C@@](C(=O)OC)(c3cc4c(cc3OC)N(C)[C@H]3[C@@](O)(C(=O)OC)[C@H](OC(C)=O)[C@]5(CC)C=CCN6CC[C@]43[C@@H]65)C2)C1 [VINBLASTINE] | drug-induced liver injury reported | drug-induced liver injury reported | no drug-induced liver injury reported | – | – | –
12 | C[N+](C)(C)CC(O)CC(=O)[O-] (stereo not drawn) [CARNITINE] | drug-induced liver injury reported | drug-induced liver injury reported | drug-induced liver injury reported | – | – | –
13 | C=Cc1c(C)c2cc3nc(c(CC(=O)NC(CC(=O)O)C(=O)O)c4nc(cc5[nH]c(cc1[nH]2)c(C)c5CC)C(C)=C4C(=O)O)C(CCC(=O)O)C3C (stereo not drawn) | drug-induced liver injury reported | no drug-induced liver injury reported | no drug-induced liver injury reported | – | – | –
14 | COC(=O)C1=C(C)NC(C)=C(C(=O)OCC(C)C)C1c1ccccc1[N+](=O)[O-] (stereo not drawn) [NISOLDIPINE] | drug-induced liver injury reported | drug-induced liver injury reported | drug-induced liver injury reported | – | – | –
15 | CNCC[C@H](Oc1cccc2ccccc12)c1cccs1 [DULOXETINE] | – | – | – | no drug-induced liver injury reported | drug-induced liver injury reported | no drug-induced liver injury reported
16 | O=c1[nH]c(=O)n([C@H]2C[C@H](O)[C@@H](CO)O2)cc1F [FLOXURIDINE] | drug-induced liver injury reported | drug-induced liver injury reported | no drug-induced liver injury reported | – | – | –
17 | NCCCC(N)(C(=O)O)C(F)F (stereo not drawn) [EFLORNITHINE] | drug-induced liver injury reported | no drug-induced liver injury reported | no drug-induced liver injury reported | – | – | –
18 | CCOC(=O)C1=C(C)NC(C)=C(C(=O)OC)C1c1cccc(Cl)c1Cl (stereo not drawn) [FELODIPINE] | no drug-induced liver injury reported | drug-induced liver injury reported | no drug-induced liver injury reported | – | – | –
19 | Cc1nnc(SCC2=C(C(=O)O)N3C(=O)[C@@H](NC(=O)Cn4cnnn4)[C@H]3SC2)s1 [CEFAZOLIN] | drug-induced liver injury reported | drug-induced liver injury reported | no drug-induced liver injury reported | – | – | –
20 | CCC1(c2ccccc2)C(=O)NC(=O)N(C)C1=O (stereo not drawn) [MEPHOBARBITAL] | drug-induced liver injury reported | no drug-induced liver injury reported | no drug-induced liver injury reported | – | – | –
21 | COc1cccc2c1C(=O)c1c(O)c3c(c(O)c1C2=O)C[C@@](O)(C(C)=O)C[C@@H]3O[C@H]1C[C@H](N)[C@H](O)[C@H](C)O1 [DAUNORUBICIN] | drug-induced liver injury reported | drug-induced liver injury reported | no drug-induced liver injury reported | – | – | –
22 | O=C(O)CCCC[C@@H]1SC[C@@H]2NC(=O)N[C@@H]21 [BIOTIN] | no drug-induced liver injury reported | drug-induced liver injury reported | no drug-induced liver injury reported | – | – | –
23 | CCn1nc(C(=O)O)c(=O)c2cc3c(cc21)OCO3 [CINOXACIN] | no drug-induced liver injury reported | drug-induced liver injury reported | no drug-induced liver injury reported | – | – | –
24 | Clc1c(Cl)c(Cl)c(Cl)c(Cl)c1Cl [PERCHLOROBENZENE] | drug-induced liver injury reported | drug-induced liver injury reported | no drug-induced liver injury reported | – | – | –
25 | NC12CC3CC(CC(C3)C1)C2 [AMANTADINE] | drug-induced liver injury reported | no drug-induced liver injury reported | no drug-induced liver injury reported | – | – | –
26 | CC[C@H]1OC(=O)[C@H](C)[C@@H](O[C@H]2C[C@@](C)(OC)[C@@H](O)[C@H](C)O2)[C@H](C)[C@@H](O[C@@H]2O[C@H](C)C[C@H](N(C)C)[C@H]2O)[C@](C)(OC)C[C@@H](C)C(=O)[C@H](C)[C@@H](O)[C@]1(C)O [CLARITHROMYCIN] | drug-induced liver injury reported | drug-induced liver injury reported | no drug-induced liver injury reported | – | – | –

Reference: ChEMBL document CHEMBL1697731, “Cheminformatics analysis of assertions mined from literature that describe drug-induced liver injury in different species” (Chem Res Toxicol, 2010)
